Reference: patent publication US8372890B2, “Functional food containing sodium tricaffeoylaldarate” (Zenyaku Kogyo Kabushikikaisha, priority 2006, dated 2013)

Legend:
[1] = system: Lipid Peroxidation (brain homogenate auto-oxidation); experiment: Brain homogenate auto-oxidation test (lipid peroxide production inhibition, thiobarbituric acid method); type: biochemical; details: for IC50: value in parentheses, read-out: Inhibitory Activities on Lipid Peroxidation IC50
Excerpt: [formula] Moreover, f: Purity of reference standard (%)/100 6) Brain Homogenate Auto-oxidation Test
Determined via a thiobarbituric acid method that was based on the method of Ohkawa, et al. (Reference Document 2)

[2] = biological target: maltase; experiment: Glycosidase inhibitory activity test, maltase; type: biochemical
Excerpt: (§1) 8) Glycosidase Inhibitory Activity Test
(§2) Determined via a method whereby α-amylase, maltase, and sucrase inhibitory activities were all disclosed in the abovementioned report (Non-Patent Document 1).

[3] = biological target: α-amylase; experiment: Glycosidase inhibitory activity test, amylase; type: biochemical
Excerpt: as §1, §2

[4] = 1,1-Diphenyl-2-picrylhydrazyl (DPPH) radical scavenging test; details: for EC50: value in parentheses, read-out: DPPH Radical Scavenging Activities EC50
Excerpt: 7) 1,1-Diphenyl-2-picrylhydrazyl (DPPH) Radical Scavenging Test
Determined based on the method of Blois, et al. (Reference Document 3)

[5] = biological target: sucrase (Homo sapiens, UniProt P14410); experiment: Glycosidase inhibitory activity test, sucrase; type: biochemical
Sequence of sucrase (P14410 whole entry, species assumed): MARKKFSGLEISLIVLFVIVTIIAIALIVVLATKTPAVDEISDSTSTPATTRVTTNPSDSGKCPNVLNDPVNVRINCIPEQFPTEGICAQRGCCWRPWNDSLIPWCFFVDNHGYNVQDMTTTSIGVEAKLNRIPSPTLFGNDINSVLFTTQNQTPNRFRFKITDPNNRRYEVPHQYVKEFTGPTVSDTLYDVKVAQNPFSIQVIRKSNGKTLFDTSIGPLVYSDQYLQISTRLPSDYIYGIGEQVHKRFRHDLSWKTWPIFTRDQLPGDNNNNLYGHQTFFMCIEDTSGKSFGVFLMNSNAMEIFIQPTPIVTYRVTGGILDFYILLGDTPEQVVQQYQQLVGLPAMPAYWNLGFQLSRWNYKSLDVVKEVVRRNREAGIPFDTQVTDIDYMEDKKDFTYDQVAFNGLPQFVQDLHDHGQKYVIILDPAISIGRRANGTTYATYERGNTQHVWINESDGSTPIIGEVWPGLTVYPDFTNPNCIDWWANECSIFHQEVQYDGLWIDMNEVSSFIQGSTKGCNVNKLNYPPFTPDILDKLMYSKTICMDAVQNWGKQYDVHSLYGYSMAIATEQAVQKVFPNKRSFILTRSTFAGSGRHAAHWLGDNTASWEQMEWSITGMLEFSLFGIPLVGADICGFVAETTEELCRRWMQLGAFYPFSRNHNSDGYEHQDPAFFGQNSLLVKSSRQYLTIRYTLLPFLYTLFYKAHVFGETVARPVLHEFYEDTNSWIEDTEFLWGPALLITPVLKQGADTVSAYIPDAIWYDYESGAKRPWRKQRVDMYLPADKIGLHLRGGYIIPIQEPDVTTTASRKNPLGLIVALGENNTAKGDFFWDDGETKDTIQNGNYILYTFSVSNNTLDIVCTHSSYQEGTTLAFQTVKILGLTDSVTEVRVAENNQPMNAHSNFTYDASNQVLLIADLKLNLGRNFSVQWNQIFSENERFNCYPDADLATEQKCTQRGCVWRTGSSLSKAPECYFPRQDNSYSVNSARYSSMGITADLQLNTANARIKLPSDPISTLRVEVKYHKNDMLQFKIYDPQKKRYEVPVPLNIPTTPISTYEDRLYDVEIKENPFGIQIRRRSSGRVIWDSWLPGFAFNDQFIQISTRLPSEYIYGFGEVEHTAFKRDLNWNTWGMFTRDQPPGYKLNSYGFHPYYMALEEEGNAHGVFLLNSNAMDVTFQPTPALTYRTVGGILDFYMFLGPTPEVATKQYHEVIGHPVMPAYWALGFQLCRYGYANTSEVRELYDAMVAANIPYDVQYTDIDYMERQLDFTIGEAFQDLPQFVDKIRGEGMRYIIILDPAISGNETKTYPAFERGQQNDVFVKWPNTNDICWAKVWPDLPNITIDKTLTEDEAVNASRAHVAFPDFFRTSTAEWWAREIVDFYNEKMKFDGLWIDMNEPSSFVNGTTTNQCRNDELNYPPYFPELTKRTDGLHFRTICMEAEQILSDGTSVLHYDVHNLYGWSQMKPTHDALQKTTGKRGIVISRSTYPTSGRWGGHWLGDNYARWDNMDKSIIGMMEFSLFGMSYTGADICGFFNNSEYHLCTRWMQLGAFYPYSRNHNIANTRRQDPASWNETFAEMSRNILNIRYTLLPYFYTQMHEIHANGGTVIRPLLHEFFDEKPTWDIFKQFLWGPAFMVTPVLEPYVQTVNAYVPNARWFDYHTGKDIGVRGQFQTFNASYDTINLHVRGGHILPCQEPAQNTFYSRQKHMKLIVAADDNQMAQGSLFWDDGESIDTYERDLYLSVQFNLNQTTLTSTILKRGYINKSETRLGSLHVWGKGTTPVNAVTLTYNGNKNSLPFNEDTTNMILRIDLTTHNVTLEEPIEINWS
Excerpt: as §1, §2

[6] = system: blood glucose level after maltose-loading; experiment: Hyperglycemic inhibitory action after maltose-loading in rat; type: in vivo, SD (IGS) rat; details: for ΔAUC of blood glucose / ΔCmax of blood glucose: maltose 1 g/kg gavage
Excerpt: • 1) Test Substance: With regard to TCAA, Yacon hot water extract was passed through an HP-20 column chromatograph, then eluted with water, and finally eluted with 50% methanol to obtain a polyphenol fraction. This fraction was separated by being passed through a Sephadex LH-20, and eluted with 40% methanol/water, so that the total amount of TCAA contained therein was recovered during confirmation of TCAA with HPLC. Then, the rough TCAA fraction was passed through a HW-40 column chromatograph, separated with 40% methanol/water during confirmation of TCAA with HPLC in a similar manner, and components other than TCAA were removed. […] Moreover, the maltose employed was purchased from Wako Pure Chemical Industries, Ltd. • 2) Animals: One group of five SD (IGS) 7 week old male rats was employed. 2. Experimental Method • 1) Configuration of the Treatment Group • (1) Control Group (Maltose Only) • (2) Maltose+TCAA (600 mg/kg×2) • (3) Maltose+TCAA (300 mg/kg×2) • (4) Maltose+TCAA (150 mg/kg×2) • 2) Preparation of Test Substance
Maltose was weighed to an amount of 1.5 g, dissolved in 15 ml of distilled water, and administered by gavage at a dosage of 1 g/10 ml/kg. Then TCAA was administered in two doses, a first dosage in which it was administered in a maltose solution, and then a second dosage in which it was dissolved in distilled water, with both dosages being at ratios of 150 mg/10 ml, 300 mg/10 ml, and 600 mg/10 ml, respectively, and administration thereof by gavage at a dosage of 10 ml/kg.
After blood samples were collected from rats that fasted for 17 hours prior to administration of the test substance (0 time), the test substance was administered. Fifteen minutes later the second dosage was administered, with blood samples being taken soon thereafter (specifically, 15 minutes later), 30 minutes thereafter, 45 minutes thereafter, 60 minutes thereafter, 90 minutes thereafter, and 120 minutes thereafter, respectively, and then blood glucose levels being measured with a Glucocard (Aventis Pharma, Limited).
When measuring blood glucose levels at the times that each of the samples were collected, the change in blood glucose (A) was calculated by subtracting the blood glucose level prior to the administration (0 time) from the blood glucose levels after the administration of the test substance, and determining the maximum serum concentration (ΔCMAX) and area under the blood glucose curve (ΔAUC).
The blood glucose values obtained by the present experiment were averaged, the standard error of the mean was calculated, and a two-group comparison was made with the control group. The statistical test method was via the Bartlett method, with the variance of the measured values being statistically verified within a 95% confidence limit, and the Student's t-test only being conducted in cases of equal variance, to determine that p<0.05 was a statistically significant change.

[7] = comparative molar concentrations
[8] = TCAA 150 mg/kg × 2, mean ± SE, n = 5
[9] = TCAA 300 mg/kg × 2, mean ± SE, n = 5

With “2,3,5-tricaffeoylaltraric acid, or 2,4,5-tricaffeoylaltraric acid [TCAA]” the “Inhibitory Activities on Lipid Peroxidation IC50” value (“Inhibitory Activities” for short) [1] was 0.49 µg/mL, the “lipid peroxide production inhibitory activity, times greater than that of (±)-catechin” value [1, 7] was 68 times and the “lipid peroxide production inhibitory activity, times greater than that of ellagic acid” value [1, 7] was 2.5 times. For the same compound, the IC50 [1] was 0.7 µM, the “maltase inhibitory activity IC50” value ([2]; TCAA isolated in Example 1) was 49 µg/mL and the “maltase inhibitory activity IC50” value ([2]; TCAA test substance of Example 4, purity 91%) was 61 µg/mL. For the same compound, the “maltase inhibitory activity compared to an acarbose control” value ([2]; fraction of acarbose activity) was 1/19, the “amylase inhibitory activity IC50” value [3] was 420 µg/mL and the “DPPH Radical Scavenging Activities EC50” value [4] was 0.69 µg/mL. The EC50 [4] was 0.99 µM, the “sucrase inhibitory activity IC50” value [5] was over 1000 µg/mL and the “blood glucose 90 minute values compared to control group” value ([6]; 600 mg/kg TCAA group) was “obvious increase”. The “increase in blood glucose via maltose-loading at 15 minutes” value ([6]; each TCAA dosage group (150, 300, 600 mg/kg × 2) vs control, p<0.01) was “significantly inhibited”, the “ΔAUC of blood glucose” value [6, 8] was 5834 ± 484 mg·min/dL and the “ΔCmax of blood glucose” value [6, 8] was 86 ± 9 mg/dL. The “ΔAUC of blood glucose” value [6, 9] was 5456 ± 249 mg·min/dL, the “ΔCmax of blood glucose” value [6, 9] was 84 ± 5 mg/dL and the “ΔAUC of blood glucose” value ([6]; TCAA 600 mg/kg × 2, mean ± SE, n = 5) was 5495 ± 300 mg·min/dL. The “ΔCmax of blood glucose” value ([6]; TCAA 600 mg/kg × 2, mean ± SE, n = 5, p < 0.05 vs control) was 73 ± 3 mg/dL.
For `O=C(/C=C/c1ccc(O)c(O)c1)O[C@@H]1[C@H](O)C[C@@](O)(C(=O)O)C[C@H]1OC(=O)/C=C/c1ccc(O)c(O)c1` [3,4-DCQA, 3,4-dicaffeoylquinic acid], the “Inhibitory Activities” value [1] was 1.48 µg/mL, the IC50 [1] was 2.87 µM and the “DPPH Radical Scavenging Activities EC50” value [4] was 0.91 µg/mL. The EC50 [4] was 1.76 µM.
In the case of `O=C(/C=C/c1ccc(O)c(O)c1)O[C@@H]1C[C@](O)(C(=O)O)C[C@@H](OC(=O)/C=C/c2ccc(O)c(O)c2)[C@H]1O` [3,5-DCQA], the “Inhibitory Activities” value [1] is reported as 2.18 µg/mL, the IC50 [1] is reported as 4.23 µM and the “DPPH Radical Scavenging Activities EC50” value [4] is reported as 0.87 µg/mL. It also gave an EC50 [4] of 1.69 µM.
For `O=C(/C=C/c1ccc(O)c(O)c1)O[C@H]1[C@H](O)C[C@](O)(C(=O)O)C[C@H]1OC(=O)/C=C/c1ccc(O)c(O)c1` [4,5-DCQA], the “Inhibitory Activities” value [1] was 3.38 µg/mL, the IC50 [1] was 6.55 µM and the “DPPH Radical Scavenging Activities EC50” value [4] was 0.89 µg/mL. The EC50 [4] was 1.72 µM.
For `O=C(O)/C=C/c1ccc(O)c(O)c1` [caffeic acid], the “Inhibitory Activities” value [1] was 9.97 µg/mL, the IC50 [1] was 55.3 µM and the “DPPH Radical Scavenging Activities EC50” value [4] was 4.39 µg/mL. The EC50 [4] was 24.3 µM.
With `O=C(/C=C/c1ccc(O)c(O)c1)O[C@@H]1C[C@](O)(C(=O)O)C[C@@H](O)[C@H]1O` [chlorogenic acid] the “Inhibitory Activities” value [1] was 13.21 µg/mL and the IC50 [1] was 37.3 µM.
With `O=c1oc2c(O)c(O)cc3c(=O)oc4c(O)c(O)cc1c4c23` [ellagic acid] the “Inhibitory Activities” value [1] was 0.56 µg/mL, the IC50 [1] was 1.85 µM and the “DPPH Radical Scavenging Activities EC50” value [4] was 0.51 µg/mL. It also gave an EC50 [4] of 1.69 µM.
With `Cc1c(C)c2c(c(C)c1O)CC[C@@](C)(CCC[C@H](C)CCC[C@H](C)CCCC(C)C)O2` [α-tocopherol] the “Inhibitory Activities” value [1] was 71.24 µg/mL, the IC50 [1] was 166 µM and the “DPPH Radical Scavenging Activities EC50” value [4] was 5.65 µg/mL. The EC50 [4] was 13.1 µM.
In the case of (±)-catechin, the “Inhibitory Activities” value [1] is reported as 13.69 µg/mL, the IC50 [1] is reported as 47.2 µM and the “DPPH Radical Scavenging Activities EC50” value [4] is reported as 1.56 µg/mL. The EC50 [4] was 5.37 µM.
